Experimental data: patent US20050136444A1 (priority 2003, published 2005)
“Also recorded” adds a separate entry of the source. Where a name gives a salt, the structure may show the parent alone. Read-outs that look alike come from different tables or passages of the source.

Key:
NPFF2b = target: T1, NPFF2b (Homo sapiens, UniProt Q9Y5X5); assay: cAMP assay in transiently transfected HEK-T cells, NPFF2; assay type: cell-based; details: for EC50: cAMP data, Table 2, HEK-T cells, read-out: NPFF2b pEC50 Mean (converted)
T1 construct: expressed in transfected cells; host or cells: HEK-T
Method: (§1) An assay was established for measuring cAMP in transiently transfected cells that takes advantage of the fact that most cells that are transfected with one gene, can be simultaneously transfected with other genes. Thus, the NPFF1 and NPFF2 receptors were transfected along with a Gs-coupled receptor (EP2) at a ratio of 5:1.
This set up was routinely used for the transfection of HEK-T cells with NPFF1 and NPFF2 receptors. […] Cells were incubated for 15 minutes at 37° C. At the end of incubation, cells were lysed and the remainder of the assay performed as per DiscoveRx protocol.
(§2) Cells were incubated for another 15 minutes at 37° C. following which the cells were lysed and processed as per kit protocol.

[1] = test system: Compound 2616-induced Tactile Allodynia; assay: Compound 2616-induced Tactile Allodynia in naive rats, effect of dPQR; assay type: in vivo, rat; details: 10 mg/kg, i.p., 75 min post-injection, vs vehicle; Hydrochloride
Method: To confirm that the pronociceptive actions of Compound 2616 were mediated via NPFF1 receptors we performed a pharmacological experiment where we administered dPQR (Dansyl-Pro-Gln-Arg, a reported NPFF antagonist, custom synthesized by Phoenix Pharmaceuticals) to rats treated with Compound 2616. Baseline paw withdrawal thresholds were obtained in naive rats. Following testing, the rats received either vehicle or Compound 2616 (10 mg/kg, i.p.). […] Half of the rats that received Compound 2616 were then injected with either vehicle or dPQR (30 mg/kg, i.p.).

NPFF1 = NPFF1 (Homo sapiens, UniProt Q9GZQ6); assay: cAMP assay in transiently transfected HEK-T cells, NPFF1; assay type: cell-based; design: expressed in transfected cells; details: for Emax: HEK-T cell, read-out: NPFF1 % Efficacy Mean; for EC50: read-out: NPFF1 pEC50 Mean (converted)
From the text: as §1, with “5:1. […] Improvement was also detected in the sensitivity of the assay in some cases when cells are co-transfected with AC5 at ½-⅕ of the amount of DNA of the Gi-coupled receptor studied.” for “5:1.”
This set up was routinely used for the transfection of HEK-T cells with NPFF1 and NPFF2 receptors. After 48 hours the cAMP assay was set up using DiscoveRx assay protocol with transfected cells in suspension in the presence of varying concentrations of the NPFF ligands and 300 nM of […] in white bottom plates. Cells were incubated for 15 minutes at 37° C. At the end of incubation, cells were lysed and the remainder of the assay performed as per DiscoveRx protocol.
as §2

[2] = test system: 52° C. Water Tail Flick Test; assay: 52° C. Water Tail Flick Test, intrathecal administration; assay type: in vivo, rat; details: rats, morphine 3, 10, 30 μg, NPFF 100 μg, 1045 11.6 or 115.5 μg, 1DME 5.6, 55.6 or 556.0 μg
Method: Rats were implanted with chronically indwelling intrathecal catheters (PE-10; 7.5 cm) allowing for the delivery of compounds to the lumbar spinal cord. As a positive control, rats were treated with various doses of morphine (3, 10 and 30 μg).
Rats were implanted with chronically indwelling intrathecal catheters (PE-10; 7.5 cm) allowing for the delivery of compounds to the lumbar spinal cord.
Rats were implanted with chronically indwelling intrathecal catheters (PE-10; 7.5 cm) allowing for the delivery of compounds to the lumbar spinal cord. In order to rule out the possibility that the lack of antinociception produced by NPFF was due to the degradation of the peptide we administered 1DME (a stable NPFF analog).

[3] = test system: Carrageenan-induced Thermal Hyperalgesia; assay: Carrageenan-induced Thermal Hyperalgesia (hot plate); assay type: in vivo, rat; details: for hot plate latencies in vehicle-treated (no carrageenan) rats: 10 mg/kg; for calculated A50, reversal of thermal hyperalgesia: 95% CI; for reversal of carrageenan-induced thermal hyperalgesia: rats, 1, 3 and 10 mg/kg, hot plate
Method: Naive male Sprague-Dawley rats (175-200 g) were assessed for their responsiveness to a noxious thermal stimulus. Response latencies were measured using the hot plate test. Rats were placed in a plexiglass enclosure on a thermostatically controlled metal plate maintained at 52° C. […] Following testing, an animal model of acute inflammatory pain was created by injecting 100 μl of 2% λ-carrageenan ion to a hind paw. Three hours after carrageenan injection, hot plate latencies were again obtained. A significant reduction in the hot plate latency was interpreted as the presence of thermal hyperalgesia. Rats were injected with compound or vehicle and then tested at various time-points following drug administration. Data were converted to % Maximum Possible Effect (% MPE) by the formula, % MPE=((test-post-inflammatory)/(naive-post-inflammatory))*100, where the test score is the hot plate latency obtained after compound administration, the post-inflammatory score is the average response obtained 3 hr post-carrageenan, and the naive score is the average response obtained prior to manipulation. Additionally, paw thickness was measured (with a micrometer) following testing in order to quantify edema. Although none of the compounds tested reversed carrageenan-induced edema formation (data not shown), these compounds produced a dose-related reversal of carrageenan-induced thermal hyperalgesia.
Rats were injected (i.paw.) with 100 μl of 2% carrageenan or vehicle (dH2O) in order to produce a state of acute inflammatory pain. […] Rats were then treated with various doses of Compound 1045 (1, 3 and 10 mg/kg, i.p.) and hot plate latencies were tested across a period of 3 hours.
Rats were injected (i.paw.) with 100 μl of 2% carrageenan or vehicle (dH2O) in order to produce a state of acute inflammatory pain.
Rats were injected (i.paw.) with 100 μl of 2% carrageenan or vehicle (dH2O) in order to produce a state of acute inflammatory pain. […] Rats were then treated with various doses of Compound 3099 (1, 3 and 10 mg/kg, i.p.) and hot plate latencies were tested across a period of 3 hours.

[4] = test system: formalin-induced flinching; assay: Formalin Flinching; assay type: in vivo, rat; details: rats, 10 mg/kg i.p. 15 min prior to formalin
Method: Naive male Sprague-Dawley rats (175-200 g) were injected with a test compound followed by an injection of 50 μl of a 5.0% formalin solution into the dorsal surface of a hind paw and then placed in individual plastic cages for observation. The number of nociceptive responses (i.e., paw flinches/licks/bites) was counted for a period of 60 min following formalin injection. […] Compounds were administered 15 min prior to formalin injection. The results are depicted in FIG. 4.
(§3) A model of tonic pain was created in rats by administering an injection of 5.0% formalin solution (50 μl) into the dorsal surface of a hind paw and then placing the rat in an individual plastic cage for observation. Paw flinches/licks/bites are counted for a period of 60 min. Rats received either vehicle or Compound 3099 (10 mg/kg, i.p.) 15 min prior to the formalin injection. […] This finding is consistent with our previous data.
as §3, with “min.” for “min. Rats received either vehicle or Compound 3099 (10 mg/kg, i.p.) 15 min prior to the formalin injection.”

[5] = cAMP data, Table 2, HEK-T cells

NPFF1, sequence (Q9GZQ6 whole entry, species assumed): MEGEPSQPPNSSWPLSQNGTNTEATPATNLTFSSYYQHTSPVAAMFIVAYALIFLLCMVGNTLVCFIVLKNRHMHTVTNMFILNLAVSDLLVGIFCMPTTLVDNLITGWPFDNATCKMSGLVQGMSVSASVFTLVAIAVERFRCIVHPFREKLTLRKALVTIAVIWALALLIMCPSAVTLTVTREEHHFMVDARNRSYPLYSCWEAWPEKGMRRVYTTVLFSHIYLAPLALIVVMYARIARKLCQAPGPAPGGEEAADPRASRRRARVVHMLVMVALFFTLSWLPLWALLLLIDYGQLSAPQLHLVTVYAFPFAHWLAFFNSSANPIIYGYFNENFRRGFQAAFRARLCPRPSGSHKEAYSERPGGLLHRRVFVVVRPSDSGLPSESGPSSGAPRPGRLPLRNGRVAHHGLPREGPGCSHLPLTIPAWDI
T1 sequence (Q9Y5X5 103-522 limits assumed): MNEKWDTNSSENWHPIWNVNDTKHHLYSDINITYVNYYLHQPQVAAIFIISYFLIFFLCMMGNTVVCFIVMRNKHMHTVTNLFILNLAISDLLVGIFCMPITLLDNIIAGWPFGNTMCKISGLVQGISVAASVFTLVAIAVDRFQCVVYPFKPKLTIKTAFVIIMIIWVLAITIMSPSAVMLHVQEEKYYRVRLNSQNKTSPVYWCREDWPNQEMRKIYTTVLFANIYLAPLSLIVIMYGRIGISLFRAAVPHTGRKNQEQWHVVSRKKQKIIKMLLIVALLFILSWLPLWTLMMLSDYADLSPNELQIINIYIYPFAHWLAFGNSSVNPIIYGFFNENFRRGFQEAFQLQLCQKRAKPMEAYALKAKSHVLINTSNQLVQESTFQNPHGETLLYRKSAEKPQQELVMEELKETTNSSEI

Row | SMILES | Emax (NPFF2b; HEK-T cell, read-out: NPFF2b % Efficacy Mean) | EC50 (NPFF2b) | paw withdrawal thresholds / tactile sensitivity of naive rats [1] | Emax (NPFF1) | EC50 (NPFF1; [5]) | antinociception in 52° C. water tail flick test [2] | hot plate latencies in vehicle-treated (no carrageenan) rats [3] | maximum efficacy, reversal of thermal hyperalgesia ([3]; carrageenan-treated rats, i.p.) | calculated A50, reversal of thermal hyperalgesia ([3]; carrageenan-treated rats, i.p.) | reversal of carrageenan-induced thermal hyperalgesia ([3]; i.p.) | carrageenan-induced edema formation in the hind paw ([3]; rats, paw thickness) | formalin-induced flinching, phase I ([4]; 0-10 min post-formalin) | inhibition of formalin-induced flinching, phase II ([4]; 15-60 min post-formalin) | time of peak effect after administration ([3]; carrageenan-treated rats, i.p.) | Emax (NPFF1; [5])
1 | NC(N)=NN=Cc1ccc(-c2ccccc2C(F)(F)F)o1 (racemic) [Compound 2616, 1-[(5-(2-(Trifluoromethyl)phenyl)-furan-2-yl)-methyleneamino]guanidine Hydrochloride] | 114% | 3.16 µM | markedly decreased; also recorded: resulted in an increased sensitivity to innocuous tactile stimulation | 93% | 1.26 µM | – | – | – | – | – | – | – | – | – | –
2 | NC(N)=N/N=C/c1ccc(Cl)c(Cl)c1 [Compound 1045, 1-(3,4-Dichlorobenzylideneamino)guanidine Hydrochloride] | – | – | – | – | – | failed to elicit antinociception | did not significantly alter sensitivity to noxious thermal stimulation | 57.6% | 7.8 mg/kg | dose-related reversal of thermal hyperalgesia | did not significantly alter edema formation | – | – | – | –
3 | Cl.N=C(N)N/N=C/c1ccc(Br)c(Br)c1 [Compound 3093, 1-(3,4-Dibromobenzylideneamino)guanidine Hydrochloride] | – | 6.31 µM | – | – | 15.8 µM | – | did not significantly alter the hot plate latencies | – | 1.6 mg | dose-related reversal of thermal hyperalgesia | – | inactive | ~62.1 % inhibition | 30 to 60 min | 23%
